According to ChEMBL document CHEMBL5724914, “Linking interpersonal differences in gut microbiota composition and drug biotransformation activity” (2024):

Assay: (§1) The drug is tested on Z-012 corresponding to metagenome with ENA study accession number: PRJEB37062 and ENA sample accession number: ERS12561812 for biotransformation under anaerobic condition. The drug concentrations were measured over 9 timepoints collected between 0 and 24 hours of incubation by liquid-chromatography-coupled mass spectrometry (LC–MS)
Conditions: 2 µM
Note: call rule not given here.

Bacterial Biotransformation | Structure (SMILES)
Compound NOT metabolized | O=C1NCC2(CCN(CCc3ccccc3)CC2)O1 [FENSPIRIDE]
Compound NOT metabolized | CN(C)CC(c1ccc(O)cc1)C1(O)CCCCC1.O=C(O)CCC(=O)O (stereo not given) [DESVENLAFAXINE SUCCINATE]

Assay: (§2) The drug is tested on WLS-038 corresponding to human gut metagenome with ENA study accession number: PRJEB37062 and ENA sample accession number: ERS12561745 for biotransformation under anaerobic condition. The drug concentrations were measured over 9 timepoints collected between 0 and 24 hours of incubation by liquid-chromatography-coupled mass spectrometry (LC–MS)
Conditions: 2 µM

Bacterial Biotransformation | Structure (SMILES)
Compound NOT metabolized | O=C1NCC2(CCN(CCc3ccccc3)CC2)O1 [FENSPIRIDE]
Compound NOT metabolized | CN(C)CC(c1ccc(O)cc1)C1(O)CCCCC1.O=C(O)CCC(=O)O (stereo not given) [DESVENLAFAXINE SUCCINATE]

Assay: as §2, with “WLS-007” for “WLS-038”, “ERS12561742” for “ERS12561745”
Conditions: 2 µM

Bacterial Biotransformation | Structure (SMILES)
Compound NOT metabolized | O=C1NCC2(CCN(CCc3ccccc3)CC2)O1 [FENSPIRIDE]
Compound NOT metabolized | CN(C)CC(c1ccc(O)cc1)C1(O)CCCCC1.O=C(O)CCC(=O)O (stereo not given) [DESVENLAFAXINE SUCCINATE]

Assay: as §2, with “Z-011” for “WLS-038”, “mouse” for “human”, “ERS12561811” for “ERS12561745”
Conditions: 2 µM

Bacterial Biotransformation | Structure (SMILES)
Compound NOT metabolized | O=C1NCC2(CCN(CCc3ccccc3)CC2)O1 [FENSPIRIDE]
Compound NOT metabolized | CN(C)CC(c1ccc(O)cc1)C1(O)CCCCC1.O=C(O)CCC(=O)O (stereo not given) [DESVENLAFAXINE SUCCINATE]

Conditions: human gut metagenome, 24 h, 2 µM

Bacterial Biotransformation | Structure (SMILES)
Compound NOT metabolized | O=C1NCC2(CCN(CCc3ccccc3)CC2)O1 [FENSPIRIDE]
Compound NOT metabolized | CN(C)CC(c1ccc(O)cc1)C1(O)CCCCC1.O=C(O)CCC(=O)O (stereo not given) [DESVENLAFAXINE SUCCINATE]

Assay: as §1, with “Z-026” for “Z-012”, “ERS12561825” for “ERS12561812”
Conditions: 2 µM

Bacterial Biotransformation | Structure (SMILES)
Compound NOT metabolized | O=C1NCC2(CCN(CCc3ccccc3)CC2)O1 [FENSPIRIDE]
Compound NOT metabolized | CN(C)CC(c1ccc(O)cc1)C1(O)CCCCC1.O=C(O)CCC(=O)O (stereo not given) [DESVENLAFAXINE SUCCINATE]

Conditions: human gut metagenome, 24 h, 2 µM
Remark: another data set of the same source

Bacterial Biotransformation | Structure (SMILES)
Compound NOT metabolized | O=C1NCC2(CCN(CCc3ccccc3)CC2)O1 [FENSPIRIDE]
Compound NOT metabolized | CN(C)CC(c1ccc(O)cc1)C1(O)CCCCC1.O=C(O)CCC(=O)O (stereo not given) [DESVENLAFAXINE SUCCINATE]

Conditions: human gut metagenome, 24 h, 2 µM
Remark: another data set of the same source

Bacterial Biotransformation | Structure (SMILES)
Compound NOT metabolized | O=C1NCC2(CCN(CCc3ccccc3)CC2)O1 [FENSPIRIDE]
Compound NOT metabolized | CN(C)CC(c1ccc(O)cc1)C1(O)CCCCC1.O=C(O)CCC(=O)O (stereo not given) [DESVENLAFAXINE SUCCINATE]

Assay: as §2, with “WLS-027” for “WLS-038”, “ERS12561744” for “ERS12561745”
Conditions: 2 µM

Bacterial Biotransformation | Structure (SMILES)
Compound NOT metabolized | O=C1NCC2(CCN(CCc3ccccc3)CC2)O1 [FENSPIRIDE]
Compound NOT metabolized | CN(C)CC(c1ccc(O)cc1)C1(O)CCCCC1.O=C(O)CCC(=O)O (stereo not given) [DESVENLAFAXINE SUCCINATE]

Conditions: human gut metagenome, 24 h, 2 µM
Remark: another data set of the same source

Bacterial Biotransformation | Structure (SMILES)
Compound NOT metabolized | O=C1NCC2(CCN(CCc3ccccc3)CC2)O1 [FENSPIRIDE]
Compound NOT metabolized | CN(C)CC(c1ccc(O)cc1)C1(O)CCCCC1.O=C(O)CCC(=O)O (stereo not given) [DESVENLAFAXINE SUCCINATE]

Conditions: human gut metagenome, 24 h, 2 µM
Remark: another data set of the same source

Bacterial Biotransformation | Structure (SMILES)
Compound NOT metabolized | O=C1NCC2(CCN(CCc3ccccc3)CC2)O1 [FENSPIRIDE]
Compound NOT metabolized | CN(C)CC(c1ccc(O)cc1)C1(O)CCCCC1.O=C(O)CCC(=O)O (stereo not given) [DESVENLAFAXINE SUCCINATE]

Assay: as §2, with “Z-002” for “WLS-038”, “rabbit” for “human”, “ERS12561802” for “ERS12561745”
Conditions: 2 µM

Bacterial Biotransformation | Structure (SMILES)
Compound metabolized | O=C1NCC2(CCN(CCc3ccccc3)CC2)O1 [FENSPIRIDE]
Compound NOT metabolized | CN(C)CC(c1ccc(O)cc1)C1(O)CCCCC1.O=C(O)CCC(=O)O (stereo not given) [DESVENLAFAXINE SUCCINATE]

Assay: as §1, with “Z-010” for “Z-012”, “ERS12561810” for “ERS12561812”
Conditions: 2 µM

Bacterial Biotransformation | Structure (SMILES)
Compound NOT metabolized | O=C1NCC2(CCN(CCc3ccccc3)CC2)O1 [FENSPIRIDE]
Compound NOT metabolized | CN(C)CC(c1ccc(O)cc1)C1(O)CCCCC1.O=C(O)CCC(=O)O (stereo not given) [DESVENLAFAXINE SUCCINATE]

Conditions: human gut metagenome, 24 h, 2 µM
Remark: another data set of the same source

Bacterial Biotransformation | Structure (SMILES)
Compound NOT metabolized | O=C1NCC2(CCN(CCc3ccccc3)CC2)O1 [FENSPIRIDE]
Compound NOT metabolized | CN(C)CC(c1ccc(O)cc1)C1(O)CCCCC1.O=C(O)CCC(=O)O (stereo not given) [DESVENLAFAXINE SUCCINATE]

Assay: as §2, with “WLS-010” for “WLS-038”, “ERS12561743” for “ERS12561745”
Conditions: 2 µM

Bacterial Biotransformation | Structure (SMILES)
Compound NOT metabolized | O=C1NCC2(CCN(CCc3ccccc3)CC2)O1 [FENSPIRIDE]
Compound NOT metabolized | CN(C)CC(c1ccc(O)cc1)C1(O)CCCCC1.O=C(O)CCC(=O)O (stereo not given) [DESVENLAFAXINE SUCCINATE]

Assay: as §2, with “WLS-039” for “WLS-038”, “ERS12561746” for “ERS12561745”
Conditions: 2 µM

Bacterial Biotransformation | Structure (SMILES)
Compound NOT metabolized | O=C1NCC2(CCN(CCc3ccccc3)CC2)O1 [FENSPIRIDE]
Compound NOT metabolized | CN(C)CC(c1ccc(O)cc1)C1(O)CCCCC1.O=C(O)CCC(=O)O (stereo not given) [DESVENLAFAXINE SUCCINATE]

Assay: as §2, with “WLS-240” for “WLS-038”, “ERS12561773” for “ERS12561745”
Conditions: 2 µM

Bacterial Biotransformation | Structure (SMILES)
Compound NOT metabolized | O=C1NCC2(CCN(CCc3ccccc3)CC2)O1 [FENSPIRIDE]
Compound NOT metabolized | CN(C)CC(c1ccc(O)cc1)C1(O)CCCCC1.O=C(O)CCC(=O)O (stereo not given) [DESVENLAFAXINE SUCCINATE]

Conditions: human gut metagenome, 24 h, 2 µM
Remark: another data set of the same source

Bacterial Biotransformation | Structure (SMILES)
Compound NOT metabolized | O=C1NCC2(CCN(CCc3ccccc3)CC2)O1 [FENSPIRIDE]
Compound NOT metabolized | CN(C)CC(c1ccc(O)cc1)C1(O)CCCCC1.O=C(O)CCC(=O)O (stereo not given) [DESVENLAFAXINE SUCCINATE]

Assay: as §2, with “WLS-098” for “WLS-038”, “ERS12561754” for “ERS12561745”
Conditions: 2 µM

Bacterial Biotransformation | Structure (SMILES)
Compound NOT metabolized | O=C1NCC2(CCN(CCc3ccccc3)CC2)O1 [FENSPIRIDE]
Compound NOT metabolized | CN(C)CC(c1ccc(O)cc1)C1(O)CCCCC1.O=C(O)CCC(=O)O (stereo not given) [DESVENLAFAXINE SUCCINATE]

Assay: as §2, with “WLS-170” for “WLS-038”, “ERS12561762” for “ERS12561745”
Conditions: 2 µM

Bacterial Biotransformation | Structure (SMILES)
Compound NOT metabolized | O=C1NCC2(CCN(CCc3ccccc3)CC2)O1 [FENSPIRIDE]
Compound NOT metabolized | CN(C)CC(c1ccc(O)cc1)C1(O)CCCCC1.O=C(O)CCC(=O)O (stereo not given) [DESVENLAFAXINE SUCCINATE]
